# What was measured:
# PKCβ2 = molecular target: T1, PKCβ2 (Homo sapiens, UniProt P05771); test: Kinase panel, CaNDY 1 µM; type: biochemical; conditions: CaNDY 1 µM relative to DMSO
# T1 construct: purchased Carna Biosciences
# other 19 kinases = test: Western blot of other kinases in HEK293 cells; type: cell-based; conditions: CaNDY 2 μM, 4 days
# Experimental: To check selectivity of CaNDY for other kinases, we first examined protein expression of several kinases in HEK293 cells treated with CaNDY (2 μM) for 4 days. […] Third, protein expression of these kinases targeted by CaNDY (DYRK1A, DYRK1B, CLK1, and Haspin) was reassessed by Western blot analysis as performed in Fig. 7b.
# (§1) Western blot analysis was performed using the antibodies described above. In brief, total cell lysates were separated by SDS-PAGE (5–20% gels; ATTO, Tokyo, Japan) under reducing conditions and then transferred to a PVDF membrane (PALL, SP, Brazil). Antibody reactions were performed with Can Get Signal® Immunoreaction Enhancer Solution (Toyobo). Peroxidase activities on the membrane were visualized with ECL Western Blotting Detection Reagents (GE Healthcare) or ImmunoStar® LD (Wako Pure Chemical Industries, Osaka, Japan), and a ChemiDoc^TM MP Imaging System (Bio-Rad, Hercules, CA, USA).
# 3xFLAG-DYRK1A = molecular target: T2, 3xFLAG-DYRK1A (Homo sapiens, UniProt Q13627); test: Western blot of 3xFLAG-DYRK1A level in transfected 293T cells; type: cell-based; conditions: CaNDY 2 μM, 8 h, compared with DMSO
# T2 construct: F2A peptide linking to EGFP (2A skipping releases EGFP; a 2A remnant may stay on DYRK1A) (C); expressed in transfected cells; host or cells: 293T cells, transient
# Experimental: To investigate whether DYRK1A is a client kinase of the CDC37/HSP90 system, we used a HSP90 inhibitor, ganetespib. 293T cells were transiently transfected with an expression vector of 3xFLAG-tagged DYRK1A (3xFLAG-DYRK1A). At 24 h after transfection, the cells were treated with ganetespib for the indicated time (0–8 h). Total cell lysates were collected and subjected to SDS-PAGE followed by Western blot analysis.
# Figure 1 Ganetespib, a HSP90 inhibitor, decreases the DYRK1A protein level. 293T cells were transiently transfected with an expression vector for 3xFLAG-DYRK1A. At 24 h after transfection, the cells were treated with ganetespib (100 nM) and collected 0 and 8 h after treatment. Total cell lysates were subjected to SDS-PAGE followed by Western blot analysis using antibodies against FLAG and GAPDH. In the control group (DMSO), expression of 3xFLAG-DYRK1A increased at 8 h compared to 0 h, and ganetespib suppressed this increase of 3xFLAG-DYRK1A.
# as §1
# RAF1_Cascade = molecular target: T3, RAF1_Cascade (Homo sapiens, UniProt P04049); test: Kinase panel, CaNDY 1 µM; type: biochemical; conditions: CaNDY 1 µM relative to DMSO
# T3 construct: purchased Carna Biosciences
# FGFR3 = molecular target: T4, FGFR3 (Homo sapiens, UniProt P22607); test: Kinase panel, CaNDY 1 µM; type: biochemical; conditions: CaNDY 1 µM relative to DMSO
# T4 construct: purchased Carna Biosciences
# TRKC = molecular target: T5, TRKC (Homo sapiens, UniProt Q16288); test: Kinase panel, CaNDY 1 µM; type: biochemical; conditions: CaNDY 1 µM relative to DMSO
# T5 construct: purchased Carna Biosciences
# PHKG2 = molecular target: T6, PHKG2 (Homo sapiens, UniProt P15735); test: Kinase panel, CaNDY 1 µM; type: biochemical; conditions: CaNDY 1 µM relative to DMSO
# T6 construct: purchased Carna Biosciences
# CaMK2β = molecular target: T7, CaMK2β (Homo sapiens, UniProt Q13554); test: Kinase panel, CaNDY 1 µM; type: biochemical; conditions: CaNDY 1 µM relative to DMSO
# T7 construct: purchased Carna Biosciences
# TAOK2 = molecular target: T8, TAOK2 (Homo sapiens, UniProt Q9UL54); test: Kinase panel, CaNDY 1 µM; type: biochemical; conditions: CaNDY 1 µM relative to DMSO
# T8 construct: purchased Carna Biosciences
# CaMK1α = molecular target: T9, CaMK1α (Homo sapiens, UniProt Q14012); test: Kinase panel, CaNDY 1 µM; type: biochemical; conditions: CaNDY 1 µM relative to DMSO
# T9 construct: purchased Carna Biosciences
# FGFR4(V550L) = molecular target: T10, FGFR4(V550L) (Homo sapiens, UniProt P22455, V550L); test: Kinase panel, CaNDY 1 µM; type: biochemical; conditions: CaNDY 1 µM relative to DMSO
# T10 construct: purchased Carna Biosciences
# SRM = molecular target: T11, SRM (Homo sapiens, UniProt Q9H3Y6); test: Kinase panel, CaNDY 1 µM; type: biochemical; conditions: CaNDY 1 µM relative to DMSO
# T11 construct: purchased Carna Biosciences
# Outline: (§2)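 Here the enzymes were purified GST-fusion, full-length human kinases from baculovirus expression. After a one-hour room-temperature reaction in buffer with 1% DMSO, substrate phosphorylation was quantified by electrophoretic mobility shift and expressed as percent inhibition.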
# CDK3/CycE1 = molecular target: T12, CDK3/CycE1 (Homo sapiens, UniProt Q00526); test: Kinase panel, CaNDY 1 µM; type: biochemical; conditions: CaNDY 1 µM relative to DMSO
# T12 construct: purchased Carna Biosciences
# Outline: as §2
# AMPKα1/β1/γ1 = molecular target: T13, AMPKα1/β1/γ1 (Homo sapiens, UniProt Q13131); test: Kinase panel, CaNDY 1 µM; type: biochemical; conditions: CaNDY 1 µM relative to DMSO
# T13 construct: purchased Carna Biosciences
# Outline: as §2
# FGFR2 = molecular target: T14, FGFR2 (Homo sapiens, UniProt P21802); test: Kinase panel, CaNDY 1 µM; type: biochemical; conditions: CaNDY 1 µM relative to DMSO
# T14 construct: purchased Carna Biosciences
# Outline: as §2
# T1 sequence (P05771 1-673 isoform P05771-2): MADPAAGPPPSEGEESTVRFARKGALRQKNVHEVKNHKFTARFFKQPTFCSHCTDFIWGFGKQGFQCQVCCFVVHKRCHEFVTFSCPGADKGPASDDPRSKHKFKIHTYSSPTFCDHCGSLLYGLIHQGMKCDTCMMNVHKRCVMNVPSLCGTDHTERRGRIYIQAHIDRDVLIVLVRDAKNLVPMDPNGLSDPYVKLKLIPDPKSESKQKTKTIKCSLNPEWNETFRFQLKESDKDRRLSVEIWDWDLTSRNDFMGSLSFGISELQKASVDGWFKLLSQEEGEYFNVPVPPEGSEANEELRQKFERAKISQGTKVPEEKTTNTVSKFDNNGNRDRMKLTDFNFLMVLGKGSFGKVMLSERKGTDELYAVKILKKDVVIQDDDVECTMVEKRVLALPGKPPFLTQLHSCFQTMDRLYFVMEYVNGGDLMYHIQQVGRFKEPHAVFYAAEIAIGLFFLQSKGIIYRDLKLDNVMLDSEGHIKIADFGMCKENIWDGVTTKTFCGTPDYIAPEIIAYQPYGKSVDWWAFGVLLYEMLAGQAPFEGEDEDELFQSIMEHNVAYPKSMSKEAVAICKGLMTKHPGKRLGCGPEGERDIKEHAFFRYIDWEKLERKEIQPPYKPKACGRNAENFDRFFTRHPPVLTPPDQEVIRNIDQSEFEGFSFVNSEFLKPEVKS
# T7 sequence (Q13554 whole entry): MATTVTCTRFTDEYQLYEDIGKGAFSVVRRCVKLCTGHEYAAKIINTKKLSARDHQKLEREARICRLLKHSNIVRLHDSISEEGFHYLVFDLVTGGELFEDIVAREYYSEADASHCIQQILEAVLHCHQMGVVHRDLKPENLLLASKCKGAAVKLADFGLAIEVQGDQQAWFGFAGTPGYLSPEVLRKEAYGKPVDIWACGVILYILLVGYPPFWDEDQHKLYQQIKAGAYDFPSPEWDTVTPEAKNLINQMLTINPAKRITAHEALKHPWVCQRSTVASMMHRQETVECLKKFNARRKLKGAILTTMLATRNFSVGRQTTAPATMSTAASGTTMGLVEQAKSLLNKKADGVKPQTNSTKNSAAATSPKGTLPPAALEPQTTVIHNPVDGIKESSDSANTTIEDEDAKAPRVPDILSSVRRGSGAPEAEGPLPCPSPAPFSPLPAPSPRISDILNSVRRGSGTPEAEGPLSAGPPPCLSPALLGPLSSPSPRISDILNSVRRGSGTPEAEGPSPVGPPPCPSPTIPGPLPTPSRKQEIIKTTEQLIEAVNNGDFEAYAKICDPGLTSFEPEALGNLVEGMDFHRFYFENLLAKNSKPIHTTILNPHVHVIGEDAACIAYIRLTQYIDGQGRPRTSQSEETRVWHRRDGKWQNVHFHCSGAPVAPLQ
# T14 sequence (P21802 22-821): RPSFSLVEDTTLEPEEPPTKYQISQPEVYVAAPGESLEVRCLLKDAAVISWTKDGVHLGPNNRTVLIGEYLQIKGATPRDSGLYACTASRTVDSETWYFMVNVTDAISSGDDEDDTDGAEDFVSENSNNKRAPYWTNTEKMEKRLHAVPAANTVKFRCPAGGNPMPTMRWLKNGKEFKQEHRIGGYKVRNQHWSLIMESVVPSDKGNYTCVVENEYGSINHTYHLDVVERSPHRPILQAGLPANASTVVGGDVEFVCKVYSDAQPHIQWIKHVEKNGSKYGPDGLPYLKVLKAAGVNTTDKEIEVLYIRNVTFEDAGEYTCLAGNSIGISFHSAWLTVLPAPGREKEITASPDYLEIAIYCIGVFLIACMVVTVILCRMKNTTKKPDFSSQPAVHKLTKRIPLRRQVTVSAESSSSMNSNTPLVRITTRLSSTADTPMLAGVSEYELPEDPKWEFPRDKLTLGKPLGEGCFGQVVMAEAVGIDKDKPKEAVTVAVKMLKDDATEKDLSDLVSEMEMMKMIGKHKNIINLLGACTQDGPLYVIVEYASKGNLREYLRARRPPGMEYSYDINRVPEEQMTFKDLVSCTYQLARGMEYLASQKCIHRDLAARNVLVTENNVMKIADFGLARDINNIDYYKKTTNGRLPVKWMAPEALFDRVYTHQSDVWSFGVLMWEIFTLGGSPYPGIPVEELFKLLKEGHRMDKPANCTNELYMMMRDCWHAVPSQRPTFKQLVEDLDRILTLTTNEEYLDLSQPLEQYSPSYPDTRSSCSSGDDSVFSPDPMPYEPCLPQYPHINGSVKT
# T8 sequence (Q9UL54 whole entry): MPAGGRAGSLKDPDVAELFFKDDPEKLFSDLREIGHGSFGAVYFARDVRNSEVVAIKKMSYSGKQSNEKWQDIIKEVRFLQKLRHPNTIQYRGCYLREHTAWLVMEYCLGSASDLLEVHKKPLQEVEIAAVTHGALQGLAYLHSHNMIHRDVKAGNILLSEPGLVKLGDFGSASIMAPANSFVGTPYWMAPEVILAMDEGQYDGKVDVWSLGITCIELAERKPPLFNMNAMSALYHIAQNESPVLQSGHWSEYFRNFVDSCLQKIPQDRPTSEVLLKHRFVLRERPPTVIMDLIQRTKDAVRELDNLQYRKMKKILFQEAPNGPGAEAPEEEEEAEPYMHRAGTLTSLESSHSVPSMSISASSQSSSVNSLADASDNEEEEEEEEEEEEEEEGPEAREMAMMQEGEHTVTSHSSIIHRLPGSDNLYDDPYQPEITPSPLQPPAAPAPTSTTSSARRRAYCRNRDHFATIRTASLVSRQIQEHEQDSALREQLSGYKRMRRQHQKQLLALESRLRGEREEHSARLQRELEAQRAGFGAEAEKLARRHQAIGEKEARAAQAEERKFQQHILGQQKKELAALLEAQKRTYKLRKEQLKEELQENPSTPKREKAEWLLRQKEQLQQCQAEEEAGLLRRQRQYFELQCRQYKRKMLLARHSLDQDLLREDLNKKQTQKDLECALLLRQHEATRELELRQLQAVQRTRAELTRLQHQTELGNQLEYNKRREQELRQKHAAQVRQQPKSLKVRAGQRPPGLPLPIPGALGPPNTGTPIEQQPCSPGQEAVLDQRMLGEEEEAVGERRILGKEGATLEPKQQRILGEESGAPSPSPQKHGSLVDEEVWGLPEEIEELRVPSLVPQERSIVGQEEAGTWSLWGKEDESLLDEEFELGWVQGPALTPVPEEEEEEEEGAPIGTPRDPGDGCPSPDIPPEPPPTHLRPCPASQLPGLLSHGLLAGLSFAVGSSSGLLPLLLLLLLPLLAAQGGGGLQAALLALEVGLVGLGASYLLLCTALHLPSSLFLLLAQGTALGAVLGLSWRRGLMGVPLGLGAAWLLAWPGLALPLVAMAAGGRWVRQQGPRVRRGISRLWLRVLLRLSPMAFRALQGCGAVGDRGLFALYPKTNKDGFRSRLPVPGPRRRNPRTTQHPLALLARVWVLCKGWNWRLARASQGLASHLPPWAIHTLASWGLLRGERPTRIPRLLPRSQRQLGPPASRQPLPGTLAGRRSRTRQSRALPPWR
# T6 sequence (P15735 whole entry): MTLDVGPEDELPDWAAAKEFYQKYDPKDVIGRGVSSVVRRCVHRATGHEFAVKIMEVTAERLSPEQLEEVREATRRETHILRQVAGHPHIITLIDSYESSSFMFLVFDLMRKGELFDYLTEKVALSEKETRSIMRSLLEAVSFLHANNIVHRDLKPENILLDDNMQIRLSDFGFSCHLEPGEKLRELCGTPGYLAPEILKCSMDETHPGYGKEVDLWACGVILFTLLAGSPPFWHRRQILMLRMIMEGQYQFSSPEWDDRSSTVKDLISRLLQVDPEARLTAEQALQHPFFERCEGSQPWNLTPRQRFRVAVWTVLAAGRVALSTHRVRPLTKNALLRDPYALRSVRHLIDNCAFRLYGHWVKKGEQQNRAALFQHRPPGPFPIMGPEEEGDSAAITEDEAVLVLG
# T13 sequence (Q13131 whole entry): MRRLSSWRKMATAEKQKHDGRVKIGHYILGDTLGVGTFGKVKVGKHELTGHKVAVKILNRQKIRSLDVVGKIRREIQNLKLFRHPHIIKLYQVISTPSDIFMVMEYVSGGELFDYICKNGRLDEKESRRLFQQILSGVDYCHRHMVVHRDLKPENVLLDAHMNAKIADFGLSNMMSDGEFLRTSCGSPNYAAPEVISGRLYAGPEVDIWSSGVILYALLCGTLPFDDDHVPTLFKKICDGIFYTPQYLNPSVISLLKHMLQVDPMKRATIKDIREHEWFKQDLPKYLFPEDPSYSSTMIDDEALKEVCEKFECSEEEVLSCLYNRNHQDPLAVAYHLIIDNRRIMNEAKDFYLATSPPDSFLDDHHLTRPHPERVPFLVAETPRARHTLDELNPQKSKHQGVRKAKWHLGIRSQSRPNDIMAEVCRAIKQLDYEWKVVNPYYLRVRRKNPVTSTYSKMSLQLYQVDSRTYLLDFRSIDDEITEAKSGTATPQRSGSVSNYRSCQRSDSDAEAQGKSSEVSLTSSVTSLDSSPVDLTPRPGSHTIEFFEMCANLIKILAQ
# T13 sequence (Q9Y478 whole entry partner): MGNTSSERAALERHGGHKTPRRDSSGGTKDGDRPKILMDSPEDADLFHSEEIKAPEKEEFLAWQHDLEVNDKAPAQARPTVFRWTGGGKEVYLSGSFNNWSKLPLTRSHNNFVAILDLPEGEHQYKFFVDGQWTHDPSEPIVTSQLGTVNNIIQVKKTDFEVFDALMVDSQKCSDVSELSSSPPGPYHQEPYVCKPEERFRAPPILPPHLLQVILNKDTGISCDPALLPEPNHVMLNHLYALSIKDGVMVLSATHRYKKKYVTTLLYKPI
# T13 sequence (P54619 whole entry partner): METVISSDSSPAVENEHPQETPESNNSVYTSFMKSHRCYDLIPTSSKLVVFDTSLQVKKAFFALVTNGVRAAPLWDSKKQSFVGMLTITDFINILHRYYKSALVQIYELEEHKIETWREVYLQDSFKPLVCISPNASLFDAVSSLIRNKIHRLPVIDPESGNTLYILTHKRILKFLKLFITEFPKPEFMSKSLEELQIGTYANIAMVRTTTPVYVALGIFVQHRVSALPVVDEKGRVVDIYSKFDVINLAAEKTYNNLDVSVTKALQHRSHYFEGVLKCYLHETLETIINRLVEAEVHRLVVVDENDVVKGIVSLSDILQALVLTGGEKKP
compound,measurement,setting,value
"[H]/N=C1/NC(=O)C(=Cc2ccc3c(c2)CCO3)S1 [CaNDY, (Z)-5-[(2,3-dihydrobenzofuran-5-yl)methylene]-2-iminothiazolidin-4-one]",remaining activity at 1 µM,PKCβ2,88.2%
same,protein expression of other kinases,other 19 kinases,did not decrease the other 19 kinases
same,3xFLAG-DYRK1A level,3xFLAG-DYRK1A,decreased the 3xFLAG-DYRK1A level
same,remaining activity at 1 µM,RAF1_Cascade,82.3%
same,remaining activity at 1 µM,FGFR3,104%
same,remaining activity at 1 µM,TRKC,101%
same,remaining activity at 1 µM,PHKG2,88%
same,remaining activity at 1 µM,CaMK2β,98.2%
same,remaining activity at 1 µM,TAOK2,95.7%
same,remaining activity at 1 µM,CaMK1α,100%
same,remaining activity at 1 µM,FGFR4(V550L),105%
same,remaining activity at 1 µM,SRM,77%
same,%Activity,CDK3/CycE1,94.7%
same,remaining activity at 1 µM,AMPKα1/β1/γ1,91.9%
same,remaining activity at 1 µM,FGFR2,104%

# Reference: publication PMC4522657, “Identification of a DYRK1A Inhibitor that Induces Degradation of the Target Kinase using Co-chaperone CDC37 fused with Luciferase nanoKAZ” (Scientific Reports, 2015)
